The subject of this assay is Plasmodium falciparum. Put plainly: MMV: Measure of pLDH activity as indication of parasite viability. Gametocytogenesis of 3D7 Plasmodium falciparum strain was induced in vitro and asexual parasites were depleted with N-acetylglucosamine. Gametocytes were treated with dihydroartemisinin, epoxomicin, methylene blue, primaquine, puromycin or chloroquine in 96-well plates and the pLDH activity was evaluated using a modified Makler protocol. Mosquito infectivity was measured by the standard membrane feeding assay. It counts as functional. The arrangement: concentration or dose not given beside the values.
As to `Oc1ccc(Br)cc1CN1CCN(Cc2ccc(Cl)cc2)CC1`, the “Growth Inhibition” value is on record as 44.4912%.
The same measure for `CCOc1c(Br)cc(C2C(C(=O)OC)=CN(C)C=C2C(=O)OC)cc1OC`: 11.9416%; for `COc1ccc(CCN2CCC(CN(C)Cc3cnn(-c4ccccc4)c3)CC2)cc1`: 34.868%.
For the compound `COc1ccc(-c2cc3c(SCC(=O)Nc4cc(C(F)(F)F)ccc4Cl)nccn3n2)cc1`, the “Growth Inhibition” value turned out to be 0.117%.
Turning to `CN1c2ccccc2N(C)C1c1ccc2c(c1)OCO2`, the “Growth Inhibition” value is recorded as 17.3464%.
In the case of `Cc1cc(Nc2cccc(F)c2)nc(NCc2ccccc2)n1`, the “Growth Inhibition” value worked out at 7.8192%.
`O=C1c2ccccc2C2=Nc3ccccc3SC(c3cccc(F)c3)C12` (stereo unspecified): the “Growth Inhibition” value worked out at 29.827%.
Then `COc1ccc(C2C(C(=O)Nc3cccc(OC)c3)c3ccccc3C(=O)N2C2CCCCC2)cc1` (stereo unspecified), with -2.347%; and `CCOC(=O)C1=CN(C)C=C(C(=O)OCC)C1c1cc(Br)c(OCC)c(OC)c1`, with 20.4206%.
With `CC(C)CNC(=O)c1c(N)n(CCc2ccccc2F)c2nc3ccccc3nc12`, the “Growth Inhibition” value is reported as -1.2922%.
Turning to `COc1ccc(-c2cc(=O)oc3c4c(ccc23)OCN(Cc2ccc(F)cc2)C4)cc1`, the “Growth Inhibition” value turned out to be 25.9468%.
For the compound `O=C(Nc1ccc(F)c(Cl)c1)Nc1ccc(Cl)c(Cl)c1`, the “Growth Inhibition” value is 4.6714%.
As to `COC(=O)c1ccc(Cl)c2c1C1C=CCC1C(c1cccc3ccccc13)N2` (stereo unspecified), the “Growth Inhibition” value was -3.8852%.
Then `CNCCCNc1ccnc2cc(Cl)ccc12`, with -4.352%.
Take `Cc1ccc(N2C(=O)C3C(C2=O)C2(c4ccccc4)C(=O)C3(c3ccccc3)C(c3ccccc3)=C2c2ccccc2)cc1` (stereo unspecified): the “Growth Inhibition” value is 4.6846%.
As to `Cc1cc(C=C2SC(=Nc3ccccc3)N(C3CCCC3)C2=O)c(C)n1-c1ccc(Cl)cc1`, the “Growth Inhibition” value is -0.992%.
The same measure for `CN(N=O)C1=C(NC2CCCCC2)C(=O)c2ccccc2C1=O`: 32.2%; for `Cc1ccc(-c2cc3c(nn2)-c2ccccc2C3=O)cc1`: 32.1362%; for `CCCCCn1c(=N)n(CC(O)COc2cccc(C)c2)c2ccccc21.Cl` (stereo unspecified): 34.3056%.
In the case of `Cc1cc(C)c2c(c1)OCN(Cc1ccccc1Cl)C2`, the “Growth Inhibition” value amounted to 32.69%.
`COCCn1c(C)nc2ccccc2c1=O`: the “Growth Inhibition” value is recorded as 4.3894%.
Consider `Cc1sc(NC(=O)c2ccccc2)c(C(c2cccs2)N2CCN(c3ccccc3)CC2)c1C` (stereo unspecified), for which the “Growth Inhibition” value turned out to be 0.692%.
The same measure for `COc1ccc(-c2cn3c(C(=O)Nc4ccccc4Cl)c(-c4ccccc4)c4c3n2CCCC4)cc1`: 1.628%; for `OC(CNCC1CCCO1)Cn1c2ccc(Cl)cc2c2cc(Cl)ccc21` (stereo unspecified): 10.6906%; for `Cl.Oc1ccccc1CNCC12CC3CC(CC(C3)C1)C2`: 28.0055%.
On to `CN1CCN(c2c3c(c(C#N)c4nc5ccccc5n24)CCC3)CC1`, for which the “Growth Inhibition” value is reported as 7.7684%.
Consider `O=C(Nc1ccsc1C(=O)NC1CCCCC1)c1ccc(F)cc1`, for which the “Growth Inhibition” value stood at 7.047%.
As for `CCOC(=O)c1cnc2c(C)cc(C)cc2c1Nc1ccc(OC)c(OC)c1`, the “Growth Inhibition” value is -11.2088%.
With `O=C(Nc1ccc(Cl)cc1C(=O)Nc1ccncc1)c1ccc(Cl)cc1Cl`, the “Growth Inhibition” value is listed as 4.844%.
Turning to `O=c1nc(C=Cc2ccc(Cl)cc2)oc2ccccc12`, the “Growth Inhibition” value is reported as 11.0552%.
Regarding `Br.CCn1c2c(c(=N)c3c1CCC3)CCCC2`, the “Growth Inhibition” value is -4.7115%.
Then `COc1ccc(C(=O)Nc2ccc3nc(N4CCCCC4)cc(C)c3c2)cc1OC`, with 11.0486%; and `N=c1c2ccccc2nnn1-c1cccc(C(F)(F)F)c1`, with 20.848%.
Regarding `CCCCc1c(CCC)c(=N)c2ccccc2n1C.I`, the “Growth Inhibition” value stood at 1.3375%.
For `O=c1c2c([nH]c3ccccc13)CCCC2`, the “Growth Inhibition” value was determined as 19.1396%.
As for `CC1CCN(Cc2c(O)ccc3cc(-c4nc5ccccc5s4)c(=O)oc23)CC1`, the “Growth Inhibition” value is on record as 9.8172%.
Then `Cc1c(C)n(CC(O)CNC2CCCCC2C)c2ccccc12` (stereo unspecified), with 42.7668%.
Consider `CCOc1ccc(Nc2c3ccccc3nc3ccccc23)cc1.Cl`, for which the “Growth Inhibition” value came out at 2.291%.
The same measure for `O=C(Nc1ccc(CN2CCOCC2)cc1)c1ccc(-c2ccc(Br)cc2)o1`: 17.4274%; for `CCC1(C)CC(CCNCc2ccccc2O)(c2ccc(C)cc2)CCO1` (stereo unspecified): 26.52%.
As to `Cc1c(C)n(Cc2ccc(F)cc2)c2ccc(C(=O)NCc3ccco3)cc12`, the “Growth Inhibition” value amounted to 19.2814%.
The same measure for `CCOc1cc(Cl)c(C(C)NC(=O)c2ccccc2)cc1OCC` (stereo unspecified): 3.3956%.
`c1ccc2cc3c(Nc4ccc(N5CCOCC5)cc4)ccnc3cc2c1`: the “Growth Inhibition” value turned out to be 12.7974%.
On to `CCCCc1c(C)nc2c(OC)cccc2c1O`, for which the “Growth Inhibition” value was found to be 10.7044%.
On to `Nc1ccc(-c2nc3cc(Cc4ccc5[nH]c(-c6ccc(N)cc6)nc5c4)ccc3[nH]2)cc1`, for which the “Growth Inhibition” value was found to be 9.5548%.
As to `CC1CN(C(=O)c2sc3ccccc3c2Cl)CC(C)O1` (stereo unspecified), the “Growth Inhibition” value was determined as 1.741%.
Then `COc1ccc(C(=O)C2CC2c2ccc(Cl)cc2)cc1` (stereo unspecified), with 8.002%.
Consider `OC(CNC1CCCCC1)Cn1c2ccccc2c2ccccc21` (stereo unspecified), for which the “Growth Inhibition” value was 33.5526%.
As to `CCCc1cc(O)c2c3c(c(=O)oc2c1)CN(C)CC3`, the “Growth Inhibition” value is reported as 31.2868%.
Turning to `COc1ccc2nc(N)nc(C)c2c1`, the “Growth Inhibition” value is 7.6614%.
Then `CCCCN(CCCC)S(=O)(=O)c1ccc(NC(=O)c2ccco2)cc1`, with 9.666%; and `CN(C)c1ccc(-c2nc3cc(N)ccc3[nH]2)cc1`, with 18.3914%; and `CCCCCCc1cc2cc(-c3nc4ccccc4[nH]3)c(=Nc3ccccc3C)oc2cc1O`, with 18.3094%.
In the case of `CC(NCc1ccccc1)c1cc(Cl)ccc1O` (stereo unspecified), the “Growth Inhibition” value worked out at 40.6308%.
Consider `N=c1n(CCN2CCCCC2)c2ccccc2n1CC(=O)c1ccc(Cl)c(Cl)c1`, for which the “Growth Inhibition” value came out at 13.8938%.
Then `COc1ccc(CNC(=O)c2cc3c(=O)n4ccccc4nc3n(CCc3ccccc3)c2=N)cc1`, with 29.2402%.
Turning to `Br.Cc1ccc(C)c(-c2csc(Nc3ccc(C)c(C)c3)n2)c1`, the “Growth Inhibition” value is -6.2508%.
In the case of `CCCCNCC(O)(c1ccc(Cl)cc1)c1ccc(Cl)cc1`, the “Growth Inhibition” value was found to be 33.502%.
In the case of `O=C(Nc1ccc(Cl)cc1)N1CCN(c2ccc3nncn3n2)CC1`, the “Growth Inhibition” value was -0.5422%.
Turning to `OC(Cn1nnc2ccccc21)Cn1c2ccc(Br)cc2c2cc(Br)ccc21` (stereo unspecified), the “Growth Inhibition” value was found to be 11.39%.
For the compound `CCOc1cc2c(cc1OCC)C(c1cc(C)c(O)c(C)c1)NCC2.Cl` (stereo unspecified), the “Growth Inhibition” value stood at 25.854%.
The same measure for `Cc1ccccc1OCCSc1nc2ccc(NC(=O)c3ccccc3)cc2s1`: -3.751%; for `CCCCOc1ccc(C(=O)Nc2cc(C)on2)cc1`: -2.1422%.
As to `CCN(CC)c1cc(C)c2cc(NC(=O)c3cccc(OC)c3)ccc2n1`, the “Growth Inhibition” value is listed as 11.335%.
Take `COc1cccc(C=Cc2nc(=O)c3ccccc3o2)c1OC`: the “Growth Inhibition” value amounted to 2.1344%.
On to `CCOc1cc2c(cc1OCC)C(c1cc(Cl)ccc1O)NCC2` (stereo unspecified), for which the “Growth Inhibition” value came to 24.0914%.
Take `CCN(CC)CCNc1ccnc2cc3ccccc3cc12.O=P(O)(O)O`: the “Growth Inhibition” value is on record as 12.0652%.
For the compound `CC(O)(c1ccc(Cl)cc1)C(CN1CCCCC1)c1ccccc1.Cl` (stereo unspecified), the “Growth Inhibition” value was 18.9754%.
With `CCOc1ccc(-c2nonc2NC(=O)c2cccc(C)c2)cc1OCC`, the “Growth Inhibition” value stood at 30.014%.
`CCCN(CCC)CC(O)COc1ccccc1C(=O)Nc1ccccc1` (stereo unspecified): the “Growth Inhibition” value is on record as 34.3502%.
Consider `OC1=C2C(=Nc3ccccc3SC2c2ccccc2)c2ccccc21` (stereo unspecified), for which the “Growth Inhibition” value was 34.196%.
For the compound `CCN(CC)CCCNc1nc(-c2ccc(Cl)cc2)nc2ccccc12`, the “Growth Inhibition” value came out at 7.9964%.
On to `COc1ccc(C2Sc3ccccc3N=C3C2=C(O)c2ccccc23)cc1` (stereo unspecified), for which the “Growth Inhibition” value is reported as -5.7444%.
Consider `Cc1ccc(Cn2c(N3CCC(C(=O)NCc4cccs4)CC3)nc3ccccc32)cc1`, for which the “Growth Inhibition” value is given as -1.5746%.
On to `O=C(Nc1ccc(Cl)c(Cl)c1)Nc1ccc(Cl)c(Cl)c1`, for which the “Growth Inhibition” value amounted to 10.3704%.
In the case of `O=C(Nc1ccccc1O)c1ccc(Oc2cccc(C(=O)Nc3ccccc3O)c2)cc1`, the “Growth Inhibition” value came to 23.386%.
Consider `O=C(CCl)NCCOc1ccc(Cl)cc1Cl`, for which the “Growth Inhibition” value came to 8.2288%.
Then `CCOc1ccccc1CN1CCc2nc3cc(C(C)(C)C)nn3c(O)c2C1`, with 8.4768%; and `O=c1cc(NC2CCN(CCCc3ccccc3)CC2)c2cc(Cl)ccc2o1`, with 18.578%; and `COc1ccc(-c2nonc2NC(=O)c2cccc(C)c2)cc1OC`, with 3.7758%.
As to `CC(C)(C)c1ccc(C(=O)Nc2nc3ccccc3s2)cc1`, the “Growth Inhibition” value is 9.3876%.
With `CCOc1ccc2c(c1)CN(Cc1ccc(Cl)cc1)CO2`, the “Growth Inhibition” value was 25.403%.
As for `Cc1ccc2c(C)nc(Nc3nc(C)cc(-c4ccccc4)n3)nc2c1`, the “Growth Inhibition” value is on record as -3.9148%.
For the compound `COc1ccc(-c2c(C)nn3c(N)c(C#N)cnc23)cc1OC`, the “Growth Inhibition” value is 32.2252%.
For `Cc1[nH]c(-c2ccc(F)cc2)cc1C(=O)NC1CCN(Cc2ccccc2)CC1`, the “Growth Inhibition” value came out at 9.4322%.
Turning to `COc1cccc(C(=O)Nc2ccc(-c3nc4ccccc4[nH]3)cc2)c1`, the “Growth Inhibition” value is listed as 15.5734%.
Turning to `COc1ccc(-c2nonc2NC(=O)c2cccc(Cl)c2)cc1OC`, the “Growth Inhibition” value is on record as 6.9258%.
The same measure for `O=c1nc(C=Cc2ccc(Br)cc2)oc2ccccc12`: 11.7922%; for `CCOC(=O)c1ccc2nc(-c3ccccc3)cc(O)c2c1`: 40.6125%.
For the compound `CN(C)c1ccc(C=Cc2nc(=O)c3ccccc3o2)cc1`, the “Growth Inhibition” value turned out to be 1.8448%.
Consider `CC(=O)c1sc(NC(=O)Nc2ccc(C)cc2C)nc1C`, for which the “Growth Inhibition” value was 12.9136%.

These data come from ChEMBL document CHEMBL3301555, “MMV Malaria Box screening in pLDH viability assay against Plasmodium falciparum gametocytes”.
